Assays:
[1] = test system: wild-type CFTR; test: Chloride currents in Ussing chamber, NuLi-1 cells; format: cell-based, human; conditions: peptide 10-30 μM, P1 30 μM
Experimental: (§1) Human airway epithelial cell lines expressing a wild-type CFTR (NuLi-1) or with the ΔF508 mutation (CuFi-1) were purchased from ATCC (NuLi-1 product code: ATCC® CRL-4011™; CuFi-1 product code: ATCC® CRL-4013™). Cells were cultured in Dulbecco's Modified Eagle Medium (DMEM, Gibco, Carlsbad, Calif.) supplemented with 10% fetal bovine serum (FBS), 30 μg/mL of penicillin, 100 μg/mL of streptomycin and 300 μg/mL hygromycin B (Gibco, Carlsbad, Calif.).
(§2) To measure chloride currents in normal and ΔF508 primary human bronchial epithelial cells, cells were cultured on 1.12 cm^2 Snapwell inserts. Filters were mounted in Ussing chambers, and a chloride gradient was applied by incubating the cells in a basolateral high-chloride buffer containing (in mmol/L): 140 NaCl, 5 KCl, 0.36 K2HPO4, 0.44 KH2PO4, 1.3 CaCl2, 0.5 MgCl2, 4.2 NaHCO3, 10 HEPES, and 10 glucose, at pH 7.4 and an apical low-chloride buffer containing (in mmol/L): 133.3 Na-gluconate, 5 K-gluconate, 2.5 NaCl, 0.36 K2HPO4, 0.44 KH2PO4, 5.7 CaCl2, 0.5 MgCl2, 4.2 NaHCO3, 10 HEPES, and 10 mannitol, at pH 7.4. Buffers were aerated with a mixture of 95% O2 and 5% CO2 and the temperature was maintained at 37° C. during the experiment. […] After a stabilization period of 30 minutes, drugs were added at specific times, while the current was continuously recorded.

[2] = test system: β2-AR/cAMP signaling; test: FRET imaging of cAMP (ICUE3 probe) in hBSMCs after β2-AR stimulation; format: cell-based, human; conditions: hBSMCs pre-treated 50 μM, 30 minutes; ISO 100 nM + CGP-20712A 100 nM
Experimental: Human bronchial smooth muscle cells (hBSMCs) were transfected with a plasmid encoding the FRET probe for cAMP, ICUE3 (described in the U.S. Pat. No. 8,236,523 B2) (2), by electroporation with a Nucleofector device (AMAXA, Gaithersburg, Md.), according to the manufacturer's protocol. Briefly, 1×10^6 cells were re-suspended in 100 μL of nucleofection solution (VPI-1004, AMAXA, Gaithersburg, Md.), mixed with 1 μg of pcDNA3-ICUE3 (described in U.S. Pat. No. 8,236,523 B2), and subjected to electroporation in a nucleofection apparatus of Amaxa Biosystems (Program A-033). Live cell imaging experiments were performed at 24 hours after transfection.
Measurements of cAMP levels were performed on human bronchial smooth muscle cells (hBSMCs) that express the FRET probe ICUE3, as described previously (2). Briefly, cells were maintained in a K^+-Ringer solution containing (in mmol/L) 121.6 NaCl, 5.4 KCl, 1.8 MgCl2, 1.8 CaCl2, 4 NaHCO3, 0.8 NaH2PO4, 5 D-glucose, 5 sodium pyruvate, 10 HEPES, at pH 7.4. […] FRET efficiency was calculated using the “Method 3” provided by the Leica wizard application for FRET imaging and sensitized emission, according to which: EA(i)=B/A, where EA(i) is the apparent FRET efficiency; A and B are the intensities of the CFP channel and FRET, respectively. […]

[3] = test system: ΔF508-CFTR; test: Chloride currents in Ussing chamber, CuFi-1 cells; format: cell-based, human; conditions: CuFi-1 cells corrected with VX-809 (20 μM, 24 hours); P1 10 μM, VX-770 10 μM
Experimental: as §1, §2

[4] = test system: hBSMCs; test: Measurements of calcium transients (Indo-1) in hBSMCs; format: cell-based, human; conditions: 50 μM, 30 minutes, 40 mM KCl depolarizing solution
Experimental: Cells were washed with a Tyrode solution containing (in mmol/L): 5 HEPES, 154 NaCl, 4 KCl, 2 CaCl2, 1 MgCl2, 5.5 D-glucose, at pH 7.35 and placed on an inverted microscope. Cells were kept in Tyrode solution and treated with a KCl depolarizing solution containing (in mmol/L): 5 HEPES, 118 NaCl, 40 KCl, 2 CaCl2, 1 MgCl2, 5.5 D-glucose, at pH 7.35. Calcium transients were analyzed as the ratio of fluorescence signals measured at 400 nm and 490 nm following excitation of Indo-1-AM-loaded cells at 350 nm. Experiments were recorded and analyzed with Igor® Software, using the functions added by Jason Rothman (Neuromatic, www.thinkrandom.com).

[5] = biological target: T1, association of PI3Kγ with PKA RII (Homo sapiens, UniProt P13861); conditions: in vitro, previous study (1); cited from earlier work
T1 construct: the regulatory subunit of PKA (PKA RII) was immunoprecipitated by incubating the protein extract; expressed in transfected cells; host or cells: HEK293 (ATCC CRL-1573) transfected with pcDNA3.1-PI3Kγ; PKA RII endogenous
T1 sequence (P13861 whole entry): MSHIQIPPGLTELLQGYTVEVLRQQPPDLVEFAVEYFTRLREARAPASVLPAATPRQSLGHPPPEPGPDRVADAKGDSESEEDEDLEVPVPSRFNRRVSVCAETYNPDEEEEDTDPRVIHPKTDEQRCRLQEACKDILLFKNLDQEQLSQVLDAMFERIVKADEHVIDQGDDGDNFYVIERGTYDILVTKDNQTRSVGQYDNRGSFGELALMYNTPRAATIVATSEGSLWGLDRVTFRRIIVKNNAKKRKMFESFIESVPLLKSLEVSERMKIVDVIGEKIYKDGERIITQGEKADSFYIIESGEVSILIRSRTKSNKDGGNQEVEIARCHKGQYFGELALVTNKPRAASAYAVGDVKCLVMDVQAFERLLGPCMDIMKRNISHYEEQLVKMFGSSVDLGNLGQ

[6] = test system: PI3Kγ-bound phosphodiesterase 3B; conditions: in vitro, previous study (1); cited from earlier work

RQIKIWFQNRRMKWKK (Antennapedia penetratin 1) [P1 control peptide, cell-penetrating Penetratin 1 of Antennapedia, used as control peptide, reference compound]
CFTR-dependent Cl− currents [1]: did not change | increase of cAMP accumulation following stimulation of β2-ARs [2]: unchanged | CFTR activity in the presence of VX-770 [3]: did not change | influx of Ca2+ induced by KCl (through VOCCs) [4]: unchanged

KATHRSPGQIHLVQRHPPSEESQAF (homo sapiens) [SEQ ID No.: 1]
PKA anchoring (PI3Kγ-PKA interaction) [5]: inhibits | activity of PI3Kγ-bound phosphodiesterase 3B [6]: decreases

From US11352400B2, “PI3K gamma inhibitor peptide for treatment of respiratory system diseases” (Kither Biotech S.r.I., priority 2014, dated 2022)
